ChEMBL document CHEMBL1201862, “PubChem BioAssay data set” (2004)
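1) Cells in 96-well plates. 2) Compound, 48 h, 5 concentrations. 3) Linear interpolation between surrounding doses. 4) Unreached endpoint = highest concentration. GI50 marks 50% less growth.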 The source made the active and inactive calls. Rule as the data show it: active = GI50 up to about 1.1 µM and inactive = higher.

Key:
Assay in all cases: NCI anticancer screen, dose series, 48 h
HCT-116 = tested on: HCT-116
SNB-19 = tested on: SNB-19
HOP-92 = tested on: HOP-92
UO-31 = tested on: UO-31
Malme-3M = tested on: Malme-3M
CCRF-CEM = tested on: CCRF-CEM
HCT-15 = tested on: HCT-15
HL-60 = tested on: HL-60
NCI/ADR-RES = tested on: NCI/ADR-RES
NCI-H226 = tested on: NCI-H226
SNB-75 = tested on: SNB-75
OVCAR-3 = tested on: OVCAR-3
SK-OV-3 = tested on: SK-OV-3
MOLT-4 = tested on: MOLT-4
LOX IMVI = tested on: LOX IMVI
M14 = tested on: M14
A549 = tested on: A549
OVCAR-5 = tested on: OVCAR-5
SF-295 = tested on: SF-295
UACC-62 = tested on: UACC-62

| Compound | GI50 (HCT-116) | GI50 (SNB-19) | GI50 (HOP-92) | GI50 (UO-31) | GI50 (Malme-3M) | GI50 (CCRF-CEM) | GI50 (HCT-15) [µM] | GI50 (HL-60) | GI50 (NCI/ADR-RES) | GI50 (NCI-H226) | GI50 (SNB-75) | GI50 (OVCAR-3) | GI50 (SK-OV-3) | GI50 (MOLT-4) | GI50 (LOX IMVI) | GI50 (M14) | GI50 (A549) | GI50 (OVCAR-5) | GI50 (SF-295) | GI50 (UACC-62) |
| --- | --- | --- | --- | --- | --- | --- | --- | --- | --- | --- | --- | --- | --- | --- | --- | --- | --- | --- | --- | --- |
| COC(=O)c1c(C)cccc1CC1Cc2c(C)cccc2C1=O (stereo unspecified) | 25.9 µM (inactive) | 48.3 µM (inactive) | 24.4 µM (inactive) | 16.9 µM (inactive) | 21.6 µM (inactive) | 23 µM (inactive) | 25.8 | 16.9 µM (inactive) | 19.9 µM (inactive) | 20.6 µM (inactive) | 29.7 µM (inactive) | 24.1 µM (inactive) | 20.2 µM (inactive) | 24.4 µM (inactive) | 12 µM (inactive) | 31.5 µM (inactive) | 28.4 µM (inactive) | 80.2 µM (inactive) | 32.8 µM (inactive) | 23.8 µM (inactive) |
| CC(C)c1[nH]nc(C(N)=O)c1/N=N/N(C)C | 98.4 µM (inactive) | > 100 µM (inactive) | 47.4 µM (inactive) | 0.237 µM (active) | > 100 µM (inactive) | 36.6 µM (inactive) | > 100 | > 100 µM (inactive) | > 100 µM (inactive) | 24.1 µM (inactive) | 44.8 µM (inactive) | > 100 µM (inactive) | 52.5 µM (inactive) | 31.9 µM (inactive) | 35.7 µM (inactive) | > 100 µM (inactive) | 23.7 µM (inactive) |  | 64.7 µM (inactive) | 67.9 µM (inactive) |
| CC(=O)C(=[N+]=[N-])C(=O)NCC#N | > 10 µM (inactive) | > 10 µM (inactive) | > 10 µM (inactive) | > 10 µM (inactive) | > 10 µM (inactive) | > 10 µM (inactive) | > 10 | > 10 µM (inactive) | > 10 µM (inactive) | > 10 µM (inactive) | 0.441 µM (active) | > 10 µM (inactive) | > 10 µM (inactive) | > 10 µM (inactive) | > 10 µM (inactive) | > 10 µM (inactive) | > 10 µM (inactive) | > 10 µM (inactive) | > 10 µM (inactive) | > 10 µM (inactive) |
| CC(=O)/C=C1\Nc2ccc([N+](=O)[O-])cc2N\C1=C/C(C)=O | 28.8 µM (inactive) | 42.2 µM (inactive) | 28.4 µM (inactive) | > 100 µM (inactive) | 25.7 µM (inactive) | 17.2 µM (inactive) | 33.4 | 56.6 µM (inactive) | 30 µM (inactive) | 39.4 µM (inactive) | > 100 µM (inactive) | 31.1 µM (inactive) | 90.8 µM (inactive) | 21 µM (inactive) | 73.5 µM (inactive) | > 100 µM (inactive) | 38.3 µM (inactive) | > 100 µM (inactive) | 42.2 µM (inactive) | 26.7 µM (inactive) |
| O/N=C1\C=Cc2nn(-c3ccccc3)nc2\C1=N/O | 2.65 µM (inactive) | 5.5 µM (inactive) | 8.26 µM (inactive) | 3.15 µM (inactive) | 17.7 µM (inactive) | 2.42 µM (inactive) | 4.38 | 2.03 µM (inactive) | 7.24 µM (inactive) | 2.1 µM (inactive) | 15.6 µM (inactive) | 4.67 µM (inactive) | 6.35 µM (inactive) | 2.55 µM (inactive) | 2.81 µM (inactive) | 5.79 µM (inactive) | 3.05 µM (inactive) | 7.41 µM (inactive) | 4.89 µM (inactive) | 1.3 µM (inactive) |
| Cc1ccnc2sc3ccccc3c(=O)c12 | 32 µM (inactive) | 49.8 µM (inactive) | 54 µM (inactive) | 25.4 µM (inactive) | 51.9 µM (inactive) | 40.9 µM (inactive) | 52.2 | 30 µM (inactive) | 48.5 µM (inactive) | 36.1 µM (inactive) | 22.4 µM (inactive) | 91.6 µM (inactive) | 37.3 µM (inactive) | 26 µM (inactive) | 29.5 µM (inactive) | 44.9 µM (inactive) |  | 48.5 µM (inactive) | 50.1 µM (inactive) | 17.6 µM (inactive) |
| CN(C)CCCc1c2ccccc2nc2ccc(Cl)cc12 | 10.9 µM (inactive) | 12 µM (inactive) | 9.53 µM (inactive) |  | 15.4 µM (inactive) | 9.16 µM (inactive) | 30.5 | 16 µM (inactive) | 21.9 µM (inactive) | 24.2 µM (inactive) | 15.5 µM (inactive) | 24.8 µM (inactive) | 20.7 µM (inactive) | 17.9 µM (inactive) | 14.2 µM (inactive) | 14.2 µM (inactive) | 13.9 µM (inactive) | 15.2 µM (inactive) | 16.2 µM (inactive) | 18 µM (inactive) |
| Cc1ccc(-n2cc(-c3ccc(Cl)cc3)c3c2N=CN2N=C(c4ccco4)NC32)cc1 (stereo unspecified) | 7.05 µM (inactive) | 14.3 µM (inactive) | 2.09 µM (inactive) | 5.05 µM (inactive) | 31.3 µM (inactive) | 21 µM (inactive) | > 100 | > 100 µM (inactive) | 7.5 µM (inactive) | 11.2 µM (inactive) | 4.75 µM (inactive) | 6.49 µM (inactive) | 4.13 µM (inactive) |  | 21.9 µM (inactive) | 28.8 µM (inactive) | 15 µM (inactive) | > 100 µM (inactive) | 6.11 µM (inactive) | 13.1 µM (inactive) |
